In ChEMBL document CHEMBL5608179, “Triptonide induces apoptosis and inhibits the proliferation of ovarian cancer cells by activating the p38/p53 pathway and autophagy” (Bioorg Med Chem, 2024) one finds IC50, Activity and viability data, which are given here for twelve molecules.

The term IC50 denotes the concentration needed to halve the response being measured.

Assay [1] deals with A2780. As to the kind of experiment: Cytotoxicity against human A2780 cells assessed as cell viability measured after 48 hrs by MTT assay. The assay is classed as functional, cell-based. Conditions: A2780, 48 h. On the technique in general: Formazan colour is commonly taken as a measure of viable cells.
For assay [2], the system named is A2780. As to the kind of experiment: Induction of apoptosis in human A2780 cells assessed as early apoptotic cells at 800 nM measured after 24 hrs by Annexin V-FITC/PI flow cytometry (reference value: 2.17%). The assay is classed as functional.
Assay [3] concerns A2780. As to the kind of experiment: Induction of apoptosis in human A2780 cells assessed as necrotic cells at 800 nM measured after 24 hrs by Annexin V-FITC/PI flow cytometry (reference value: 0.18%). The assay is classed as functional. For orientation: A flow cytometer gives signals particle by particle.
Assay [4] relates to A2780. In words: Induction of apoptosis in human A2780 cells assessed as viable cells at 800 nM measured after 24 hrs by Annexin V-FITC/PI flow cytometry (reference value: 96.1%). The settings on record: read-out: Activity. The assay is classed as functional.
For assay [5], the system named is A2780. As to the kind of experiment: Induction of apoptosis in human A2780 cells assessed as late apoptotic cells at 800 nM measured after 24 hrs by Annexin V-FITC/PI flow cytometry (reference value: 1.58%). The assay is classed as functional.
The test system of another assay is SK-OV-3. As to the kind of experiment: Cytotoxicity against human SK-OV-3 cells assessed as cell viability measured after 48 hrs by MTT assay. Conditions: SK-OV-3, 48 h. The assay is classed as functional, cell-based.
In another assay the test system is Huh-7. As to the kind of experiment: Cytotoxicity against human Huh-7 cells assessed as cell viability measured after 48 hrs by MTT assay. The settings on record: Huh-7, 48 h. The assay is classed as functional, cell-based.
Assay [6] deals with A2780. In words: Induction of apoptosis in human A2780 cells assessed as necrotic cells at 20 uM measured after 24 to 72 hrs by Annexin V-FITC/PI flow cytometry (reference value: 0.39%). The settings on record: time 24-72 hrs. The assay is classed as functional.
The subject of assay [7] is A2780. As to the kind of experiment: Induction of apoptosis in human A2780 cells assessed as viable cells at 20 uM measured after 24 to 72 hrs by Annexin V-FITC/PI flow cytometry (reference value: 94.2%). The assay is classed as functional. The settings on record: time 24-72 hrs, read-out: Activity.
Assay [8] has as its system A2780. As to the kind of experiment: Induction of cell cycle arrest in human A2780 cells assessed as accumulation of cells at S phase at 20 uM measured after 24 hrs by PI staining based Cell Cycle Analysis Kit (KeyGEN) (reference value: 15%). The assay is classed as functional.
Assay [9] has as its system A2780. In words: Induction of cell cycle arrest in human A2780 cells assessed as accumulation of cells at G1 phase at 20 uM measured after 24 hrs by PI staining based Cell Cycle Analysis Kit (KeyGEN) (reference value: 54.2%). The assay is classed as functional.
In assay [10] the test system is A2780. In words: Induction of apoptosis in human A2780 cells assessed as late apoptotic cells at […] measured after 24 to 72 hrs by Annexin V-FITC/PI flow cytometry (reference value: 2.54%). The assay is classed as functional. The settings on record: time 24-72 hrs.
For assay [11], the system named is A2780. As to the kind of experiment: Induction of apoptosis in human A2780 cells assessed as early apoptotic cells at […] measured after 24 to 72 hrs by Annexin V-FITC/PI flow cytometry (reference value: 2.82%). The assay is classed as functional. The settings on record: time 24-72 hrs.
The subject of assay [12] is A2780. In words: Induction of cell cycle arrest in human A2780 cells assessed as accumulation of cells at G2 phase at 20 uM measured after 24 hrs by PI staining based Cell Cycle Analysis Kit (KeyGEN) (reference value: 24.5%). The assay is classed as functional.

Molecules are shown by their SMILES.

For the molecule `C[C@@]1(C(=O)O)CC[C@]2(C)CC[C@]3(C)C4=CC(=O)c5c(cc(O)c(O)c5C=O)[C@]4(C)CC[C@@]3(C)[C@@H]2C1`, in the assay with A2780 [1], the IC50 was determined as 10.1 µM.

Take `C[C@]12CCC[C@@]3(COC1=O)[C@@H]1CC[C@@H]4C[C@@]1(CC[C@@H]32)C[C@@]4(C)O`: the concentration for half-maximal inhibition (IC50) in the assay with A2780 [1] was above 60 µM.

Consider `C[C@@H]1[C@@]23CC[C@H]4[C@@](C)(CC[C@@]5(C)[C@@H]6C[C@](C)(C(=O)O)CC[C@]6(C)CC[C@]45C)[C@@H]2C[C@@H](O)[C@@]1(O)OC3`, for which the concentration for half-maximal inhibition (IC50) in the assay with A2780 [1] was above 60 µM.

As to `CC(=O)OC[C@]12[C@H](OC(C)=O)[C@H](OC(C)=O)[C@@H]3[C@@H](OC(C)=O)[C@@]14O[C@@]3(C)COC(=O)c1cccnc1CC[C@H](C)C(=O)O[C@@H]([C@H](OC(=O)c1ccccc1)[C@@H]2OC(C)=O)[C@]4(C)O`, the half-maximal inhibitory concentration (IC50) in the assay on A2780 [1] was above 60 µM.

Turning to `CC(=O)OC[C@]12[C@H](OC(C)=O)[C@H](OC(C)=O)[C@@H]3[C@@H](OC(C)=O)[C@@]14OC3(C)COC(=O)c1cccnc1CCC(C)C(=O)O[C@@H]([C@H](OC(=O)c1ccoc1)[C@@H]2OC(C)=O)C4(C)O` (stereo not given in full), the IC50 in the assay on A2780 [1] is above 60 µM.

On to `CC1(C)[C@@H](O)CC[C@]2(C)[C@H]3CC=C4[C@@H]5C[C@@]6(C)C[C@H](OC6=O)[C@]5(C)CC[C@@]4(C)[C@]3(C)CC[C@@H]12` [3-EPIABRUSLACTONE A], for which the IC50 in the assay with A2780 [1] is above 60 µM.

As for `CO/C1=C\C(C)=C\[C@@H](C)[C@@H](O)[C@@H](C)C/C(C)=C/C=C/[C@H](OC)[C@@H]([C@@H](C)[C@@H](O)[C@H](C)[C@@]2(O)C[C@@H](O)[C@H](C)[C@@H](C(C)C)O2)OC1=O` [BAFILOMYCIN A1], the Activity with A2780 [2] stood at 3.33%; with A2780 [3], 0.43%; in the assay with A2780 [5], 2.27%. In addition, the viability at 0.8 µM in the assay on A2780 [4] came out at 94%.

In the case of `CC1=C(O)C(=O)C=C2C1=CC=C1[C@@]2(C)CC[C@@]2(C)[C@@H]3C[C@](C)(C(=O)O)CC[C@]3(C)CC[C@]12C` [CELASTROL], the IC50 in the assay with A2780 [1] was found to be 1.57 µM.

As to `COc1cccc2c1C(=O)c1c(O)c3c(c(O)c1C2=O)C[C@@](O)(C(=O)CO)C[C@@H]3O[C@H]1C[C@H](N)[C@@H](O)[C@H](C)O1` [EPIRUBICIN], the IC50 with SK-OV-3 was determined as 0.498 µM; with A2780 [1], 1.28 µM; with Huh-7, 0.495 µM.

Regarding `O=c1[nH]cc(F)c(=O)[nH]1` [FLUOROURACIL], the results for the half-maximal inhibitory concentration (IC50) in the assay with SK-OV-3, in the assay on A2780 [1] and in the assay on Huh-7 were 10.8 µM, 3.93 µM and 28.5 µM, respectively.

Regarding `C[S+]([O-])c1ccc(-c2nc(-c3ccc(F)cc3)c(-c3ccncc3)[nH]2)cc1` (stereo not given) [SB-203580], the Activity in the assay with A2780 [6] turned out to be 0.41%; in the assay with A2780 [8], 10%; in the assay with A2780 [9], 53.8%; in the assay with A2780 [10] it was 4.27%; with A2780 [11], 3.32%; in the assay on A2780 [12], 31.5%. The viability at 20 µM with A2780 [7] worked out at 92%.

In the case of `CC(C)c1ccc2c(c1O)CC[C@H]1C3=C(CC[C@]21C)C(=O)OC3` [TRIPTOPHENOLIDE], the half-maximal inhibitory concentration (IC50) in the assay on A2780 [1] was above 60 µM.
